Experimental data: article PMC5423977, “Safety, pharmacokinetics, and pharmacodynamics of BMS-986142, a novel reversible BTK inhibitor, in healthy participants” (European Journal of Clinical Pharmacology, 2017)

Experiments:
[1] = Stability of BMS-986142 in human EDTA plasma and processed samples (bioanalytical validation); assay type: physicochemical
Description: Method validation was carried out according to the Bristol-Myers Squibb Standard Operating Procedures (SOPs) for chromatographic method validation which conforms to the U.S. FDA’s Good Laboratory Practice (GLP) regulations (21 CFR part 58). The validation experiments included but were not limited to the determination of the lower limit of quantification (LLOQ), specificity, accuracy and precision, recovery, and analyte stability under the expected conditions of sample transfer, sample storage, and sample preparation. The LLOQ of the assay was determined to be 1 ng/mL using six different lots of plasma. No interference from the endogenous components and the internal standard was observed.
The accuracy and precision data for BMS-986142, based on the maximum value from all six QC levels, obtained using one-way ANOVA in Watson are listed in Table 1. The recovery of the analyte from human plasma during extraction was determined at 3 ng/mL and 800 ng/mL for BMS-986142, at 3 ng/mL, 30 ng/mL and 750 ng/mL for methotrexate and 7-hydroxymethotrexate, by comparing the response ratios in human plasma samples spiked with the analyte prior to extraction with those spiked post-extraction. The recovery for BMS-986142 is 89-90%. The recoveries for methotrexate and 7-hydroxymethotrexate are 88-94% and 83-88%, respectively. The room temperature, freeze-thaw, and frozen storage stability of BMS-986142 were evaluated in triplicate or quadruplicate using Low QC, High QC, and Dilution QC. The reinjection integrity was assessed by re-injecting an entire run. The deviations of the mean predicted concentrations of the test samples from the nominal concentrations were used as an indicator of the stability of the analyte.

[2] = Safety (adverse events), Study 2 MTX-DDI in healthy male participants
Description: This portion of the study was designed to assess the effect of BMS-986142 on the PK of MTX since MTX is used as a background therapy in RA patients and all patients will receive MTX when the phase 2 study of BMS-986142 is conducted. Eligible participants were confined to the clinical facility for the duration of treatment (15 days). Healthy participants were administered a single oral dose of 7.5 mg MTX on day 1. On day 2, participants received leucovorin (a single oral dose of 15 mg) as a preventive measure for MTX toxicity. After a washout period (days 2–5), BMS-986142 was administered on days 6–10 in 350-mg QD doses. A concomitant dose of MTX (7.5 mg) was administered on day 8, followed by leucovorin (15 mg) on day 9 (Online Resource 2). BMS-986142 was administered with 240 mL of water, and a minimum amount of additional water was permitted to allow dosing of all medications. Only healthy male participants (ages ≥18 to ≤50 years) were eligible for the MTX-DDI assessment in study 2. Other key inclusion and exclusion criteria were identical to those in study 1.
Participants were monitored for adverse events (AEs) throughout the study. Clinical laboratory tests, vital sign measurements, 12-lead ECGs, and physical examinations were performed at selected times throughout the dosing interval. Safety data was recorded in the participants’ medical records, and assessments were performed for emergent AEs or serious AEs (SAEs). For all AEs, causal relationship to the study drug was determined by an investigator.

[3] = 19.6 hours at RT in Plasma, Dilution QC 10000.00
[4] = 19.6 hours at RT in Plasma, High QC 800.00
[5] = 19.6 hours at RT in Plasma, Low QC 3.00
[6] = 96 h Processed sample stability, Dilution QC 10000.00
[7] = 96 h Processed sample stability, High QC 800.00
[8] = 96 h Processed sample stability, Low QC 3.00
[9] = 7 days at 5 °C Re-injection integrity, Dilution QC 10000.00
[10] = 7 days at 5 °C Re-injection integrity, High QC 800.00
[11] = 7 days at 5 °C Re-injection integrity, Low QC 3.00
[12] = 327 day at -20 °C in Plasma, Dilution QC 10000.00
[13] = 327 day at -20 °C in Plasma, High QC 800.00
[14] = 327 day at -20 °C in Plasma, Low QC 3.00
[15] = After 4 Freeze-Thaw Cycle in Plasma, Dilution QC 10000.00
[16] = After 4 Freeze-Thaw Cycle in Plasma, High QC 800.00
[17] = After 4 Freeze-Thaw Cycle in Plasma, Low QC 3.00
[18] = BMS-986142 350 mg QD (Days 6 and 7), n = 12
[19] = BMS-986142 350 mg QD (Days 8 to 10) + MTX 7.5 mg (Day 8) + leucovorin 15 mg (Day 9), n = 12

For `Cc1c(-c2c(F)cc(C(N)=O)c3[nH]c4c(c23)CC[C@H](C(C)(C)O)C4)cccc1-n1c(=O)c2cccc(F)c2n(C)c1=O` [BMS-986142, 6-fluoro-5-(R)-(3-(S)-(8-fluoro-1-methyl-2,4-dioxo-1,2-dihydroquinazolin-3(4H)-yl)-2-methylphenyl)-2-(S)-(2-hydroxypropan-2-yl)-2,3,4,9-tetrahydro-1H-carbazole-8-carboxamide], the “Stability, %Dev” value [1, 3] was 3.1%, the “Stability, Mean Conc.” value [1, 3] was 10314.35 ng/mL and the “Stability, %Dev” value [1, 4] was 2.0%. For the same molecule, the “Stability, Mean Conc.” value [1, 4] was 816.24 ng/mL, the “Stability, %Dev” value [1, 5] was 8.3% and the “Stability, Mean Conc.” value [1, 5] was 3.25 ng/mL. For the same molecule, the “Stability, %Dev” value [1, 6] was -3.3%, the “Stability, Mean Conc.” value [1, 6] was 9666.77 ng/mL and the “Stability, %Dev” value [1, 7] was 1.7%. The “Stability, Mean Conc.” value [1, 7] was 813.52 ng/mL, the “Stability, %Dev” value [1, 8] was 4.0% and the “Stability, Mean Conc.” value [1, 8] was 3.12 ng/mL. For the same molecule, the “Stability, %Dev” value [1, 9] was 9.9%, the “Stability, Mean Conc.” value [1, 9] was 10986.50 ng/mL and the “Stability, %Dev” value [1, 10] was 4.7%. The “Stability, Mean Conc.” value [1, 10] was 837.90 ng/mL, the “Stability, %Dev” value [1, 11] was 2.7% and the “Stability, Mean Conc.” value [1, 11] was 3.08 ng/mL. For the same molecule, the “Stability, %Dev” value [1, 12] was -4.2%, the “Stability, Mean Conc.” value [1, 12] was 9578.40 ng/mL and the “Stability, %Dev” value [1, 13] was 1.9%. For the same molecule, the “Stability, Mean Conc.” value [1, 13] was 815.36 ng/mL, the “Stability, %Dev” value [1, 14] was 5.0% and the “Stability, Mean Conc.” value [1, 14] was 3.15 ng/mL. For the same molecule, the “Stability, %Dev” value [1, 15] was -7.6%, the “Stability, Mean Conc.” value [1, 15] was 9241.55 ng/mL and the “Stability, %Dev” value [1, 16] was -5.9%. The “Stability, Mean Conc.” value [1, 16] was 752.66 ng/mL, the “Stability, %Dev” value [1, 17] was -6.3% and the “Stability, Mean Conc.” value [1, 17] was 2.81 ng/mL. For the same molecule, the “AE SOC: Gastrointestinal Disorders” value [2, 18] was 0 n (%), the “AE SOC: General disorders and administration site conditions” value [2, 18] was 0 n (%) and the “AE SOC: Infections and infestations” value [2, 18] was 0 n (%). For the same molecule, the “AE SOC: Injury, poisoning and procedural complications” value [2, 18] was 0 n (%), the “AE SOC: Nervous system disorders” value [2, 18] was 1 (8.3) n (%) and the “AE SOC: Psychiatric disorders” value [2, 18] was 1 (8.3) n (%). The “AE: Anxiety” value [2, 18] was 0 n (%), the “AE: Arthropod Bite” value [2, 18] was 0 n (%) and the “AE: Asthenia” value [2, 18] was 0 n (%). For the same molecule, the “AE: Dizziness” value [2, 18] was 0 n (%), the “AE: Fatigue” value [2, 18] was 0 n (%) and the “AE: Headache” value [2, 18] was 1 (8.3) n (%). For the same molecule, the “AE: Nausea” value [2, 18] was 0 n (%), the “AE: Sleep Disorder” value [2, 18] was 1 (8.3) n (%) and the “AE: Tremor” value [2, 18] was 0 n (%). For the same molecule, the “AE: Viral Infection” value [2, 18] was 0 n (%), the “Total participants with an event” value [2, 18] was 2 (16.7) n (%) and the “AE SOC: Gastrointestinal Disorders” value [2, 19] was 2 (16.7) n (%). The “AE SOC: General disorders and administration site conditions” value [2, 19] was 1 (8.3) n (%), the “AE SOC: Infections and infestations” value [2, 19] was 1 (8.3) n (%) and the “AE SOC: Injury, poisoning and procedural complications” value [2, 19] was 1 (8.3) n (%). For the same molecule, the “AE SOC: Nervous system disorders” value [2, 19] was 2 (16.7) n (%), the “AE SOC: Psychiatric disorders” value [2, 19] was 1 (8.3) n (%) and the “AE: Anxiety” value [2, 19] was 1 (8.3) n (%). For the same molecule, the “AE: Arthropod Bite” value [2, 19] was 1 (8.3) n (%), the “AE: Asthenia” value [2, 19] was 0 n (%) and the “AE: Dizziness” value [2, 19] was 2 (16.7) n (%). For the same molecule, the “AE: Fatigue” value [2, 19] was 1 (8.3) n (%), the “AE: Headache” value [2, 19] was 1 (8.3) n (%) and the “AE: Nausea” value [2, 19] was 2 (16.7) n (%). For the same molecule, the “AE: Sleep Disorder” value [2, 19] was 0 n (%), the “AE: Tremor” value [2, 19] was 0 n (%) and the “AE: Viral Infection” value [2, 19] was 1 (8.3) n (%). The “Total participants with an event” value [2, 19] was 4 (33.3) n (%), the “Number of AEs reported” value ([2]; Study 2, BMS-986142 on days 6 and 7) was 2 AEs and the “Number of AEs reported” value ([2]; Study 2, concomitant MTX and BMS-986142 (days 8–10)) was 9 AEs. The “AE: Cough” value ([2]; Study 2, n = 12) was 0 n (%), the “AE: Diarrhea” value ([2]; Study 2, n = 12) was 0 n (%) and the “AE: Dizziness” value ([2]; Study 2, n = 12) was 2 (16.7) n (%). For the same molecule, the “AE: Headache/tension headache” value ([2]; Study 2, n = 12) was 1 (8.3) n (%), the “AE: Nausea” value ([2]; Study 2, n = 12) was 2 (16.7) n (%) and the “AE: Thermal burns” value ([2]; Study 2, n = 12) was 0 n (%). The “AE: Upper respiratory tract infection” value ([2]; Study 2, n = 12) was 0 n (%) and the “Subjects with AEs” value ([2]; Study 2, n = 12) was 4 (33.3) n (%).
